The values that follow come from PMC13249053, “Mechanism of auranofin toxicity: Inhibition of tetrahydrobiopterin metabolism” (Toxicology and applied pharmacology, 2025).

The IC50 is the concentration that gives 50% inhibition.

For one data set, the system named is cells. The data set can be described thus: Cell viability (alamarBlue) following drug treatments. To be noted: cells pretreated with auranofin and/or methotrexate for 2 h, then sepiapterin 3 h. On the technique in general: Alamar Blue is a resazurin reagent that responds to reducing activity.
The test system of data set [1] is BH4 formation in HaCaT cells. The data set can be described thus: BH4 formation from sepiapterin in intact HaCaT cells (HPLC). It is filed as cell-based, human. Particulars: intact HaCaT cells; auranofin 2 h, then 100 μM sepiapterin 3 h; read-out: IC50, inhibition of BH4 formation in intact HaCaT cells. As to the method:
(§1) The growth medium was then removed and the cells incubated with growth medium containing 100 μM sepiapterin. […] BH2 and BH4 were then analyzed on a Jasco high-performance liquid chromatography system (Easton, MD) fitted with a Maxsil-10 C18 column (250 × 4 mm; Phenomenex, Torrance, CA). […] Cell viability following drug treatments was greater than 95 %.
Fig. 3. Effects of auranofin on BH2 and BH4 production in intact HaCaT cells treated with sepiapterin. HaCaT cells (~1 × 10^6 cells/well in 6 well culture plates) were incubated with control medium or medium containing increasing concentrations of auranofin for 2 h followed by 100 μM sepiapterin. After an additional 3 h, BH2 and BH4 were extracted from the cells and analyzed by HPLC with fluorescence detection. Left panel: Chromatograms showing BH2 and BH4 content of control cells and cells treated with Auranofin.
Fig. 6. […] Cells were treated with control medium or medium containing MTX (1 μM, 2 h), an inhibitor of DHFR, followed by 200 μM sepiapterin (upper panel) or BH2 (lower panel). After an additional 3 h incubation, cells were rinsed with PBS; BH2 and BH4 were then extracted and analyzed by HPLC as described in the Materials and Methods.

In data set [2] the target is T1, sepiapterin reductase (SPR) (Homo sapiens, UniProt P35270).
T1 construct: endogenous in cells; host or cells: HaCaT, Jurkat, BeWo, SKNMC, CX-1
The data set can be described thus: SPR enzyme activity in HaCaT cell lysates (BH2 formation from sepiapterin, HPLC). Particulars: BH2 formation from sepiapterin by HPLC, read-out: IC50, inhibition of SPR in HaCaT cell lysates. It is filed as biochemical. As to the method:
as §1
Fig. 4. Effects of auranofin on sepiapterin reductase (SPR) enzyme activity in HaCaT lysates. Lysates were assayed for SPR enzyme activity in control reaction mixes or reaction mixes containing increasing concentrations of auranofin (left panel). SPR activity was determined by decreases in BH2 formation from sepiapterin as measured by HPLC (right panel).

For data set [3], the system named is catecholamine and monoamine production in PC12 cells. The data set can be described thus: Catecholamine and monoamine production in PC12 cells (HPLC, electrochemical detection). It is filed as cell-based, rat. To be noted: auranofin 0.04–2.5 μM. As to the method: Catecholamine and monoamine production in PC12 cells were assayed as previously described ([Yang et al., 2015]). Briefly, cells grown in 10-cm culture dishes were treated in the absence or presence of auranofin (0.04–2.5 μM) in 10 ml of growth medium without FBS. After 24 h, the cells were removed from the plates, washed with phosphate-buffered saline, and centrifuged (1500 g, 10 min). Cell pellets (~8 × 10^6 cells) were resuspended in 1 ml of 0.1 N perchloric acid containing 200 μM EDTA and 350 μM sodium metabisulfite and sonicated on ice. Ly-sates were centrifuged (20,000 g, 10 min) and clear supernatants filtered using 0.22-μm filters. Extracts were then analyzed for neurotransmitters and their metabolites using a Waters 2695 high-performance liquid chromatography system (Waters Corp., Milford, MA) fitted with a cation exchange column (MD-150 3.2 × […] column; ESA Biosciences, Inc., Chelmsford, MA) using an isocratic mobile phase (MD-TM mobile phase; ESA Biosciences Inc.) containing 2.2 mM NaCl pumped at constant flow rate of 0.5 ml/min. Compounds were quantified by electrochemical detection using a glassy carbon working electrode (2 mm in diameter) with an in situ silver reference electrode (flow cell, 2 mm GC WE, ISAAC; Waters Corp.) ([Yochum et al., 2014]).
Fig. 9. […] Cells were analyzed for BH2 and BH4 as described in the Materials and Methods. […]

Data set [4] addresses SPR (Homo sapiens, UniProt P35270). The data set can be described thus: Cellular SPR activity: BH2 formation from sepiapterin in the presence of methotrexate, human cell lines. The data set is classed as cell-based. Also noted: endogenous in cells; host or cells: HaCaT, Jurkat, BeWo, SKNMC, CX-1.
The target of data set [5] is T2, SPR (Mus musculus, UniProt Q64105).
T2 construct: endogenous in cells; host or cells: RAW264.7
As to the kind of experiment: Cellular SPR activity: BH2 formation from sepiapterin in the presence of methotrexate, RAW264.7 cells. The data set is classed as cell-based. To be noted: RAW264.7 (mouse macrophage); with methotrexate. As to the method: as §1

Data set [6] addresses T3, DHFR (Rattus norvegicus, UniProt Q920D2).
T3 construct: endogenous in cells; host or cells: PC12
T3 sequence (Q920D2 1-187): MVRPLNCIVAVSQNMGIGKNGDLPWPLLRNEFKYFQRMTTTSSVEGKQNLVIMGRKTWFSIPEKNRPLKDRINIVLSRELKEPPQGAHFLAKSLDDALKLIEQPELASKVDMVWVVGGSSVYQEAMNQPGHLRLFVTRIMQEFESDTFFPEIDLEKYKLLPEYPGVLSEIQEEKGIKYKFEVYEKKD
As to the kind of experiment: Cellular DHFR activity: BH4 formation from BH2, PC12 cells. The data set is classed as cell-based. Particulars: PC12 (rat pheochromocytoma). As to the method:
as §1

The target in data set [7] is T4, DHFR (Mus musculus, UniProt P00375).
T4 construct: endogenous in cells; host or cells: RAW264.7
T4 sequence (P00375 1-187): T3 sequence (Q920D2 1-187) with L27P, Q85R, K99R, V115I, E155G, I170V
The data set can be described thus: Cellular DHFR activity: BH4 formation from BH2, RAW264.7 cells. To be noted: RAW264.7 (mouse macrophage). The data set is classed as cell-based. As to the method:
as §1

Changes are numbered by the printed parent chain. “Also recorded” adds a separate entry of the source. Like-named read-outs stand apart in the source and are kept apart here.

Sequence of SPR (Homo sapiens, UniProt P35270) (P35270 whole entry): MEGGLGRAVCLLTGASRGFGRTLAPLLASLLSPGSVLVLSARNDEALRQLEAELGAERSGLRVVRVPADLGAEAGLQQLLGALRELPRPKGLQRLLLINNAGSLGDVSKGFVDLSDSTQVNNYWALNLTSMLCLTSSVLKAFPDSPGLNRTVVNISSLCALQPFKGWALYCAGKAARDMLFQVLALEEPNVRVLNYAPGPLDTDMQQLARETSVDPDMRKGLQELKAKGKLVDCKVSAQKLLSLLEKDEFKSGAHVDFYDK
T1 sequence (P35270 whole entry): as above
T2 sequence (Q64105 whole entry): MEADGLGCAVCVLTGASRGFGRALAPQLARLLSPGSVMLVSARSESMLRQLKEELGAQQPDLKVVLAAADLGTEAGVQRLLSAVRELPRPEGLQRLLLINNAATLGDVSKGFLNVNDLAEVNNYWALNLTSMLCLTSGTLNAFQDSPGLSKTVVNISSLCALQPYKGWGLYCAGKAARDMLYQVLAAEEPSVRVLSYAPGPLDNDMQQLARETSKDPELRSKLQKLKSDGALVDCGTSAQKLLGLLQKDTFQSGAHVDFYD

On to `CC[PH](CC)(CC)[Au][S][C@@H]1O[C@H](COC(C)=O)[C@@H](OC(C)=O)[C@H](OC(C)=O)[C@H]1OC(C)=O` [auranofin, 2,3,4,6-tetra-O-acetyl-1-thio-β-D-glucopyranosato-S-triethyl phosphine gold], for which the “cell viability following drug treatments” value in the data set with cells is given as “greater than 95%”. The IC50 in data set [1] was found to be 7.9 µM; in data set [2], 1.8 µM; on SPR [4] (BeWo (human choriocarcinoma), with methotrexate, read-out: SPR IC50, BeWo cells), 8.9 ± 0.64 µM; on SPR [4] (CX-1 (human colon adenocarcinoma), with methotrexate, read-out: SPR IC50, CX-1 cells), 25.1 ± 1.03 µM; at SPR [4] (HaCaT (human keratinocytes), with MTX 1 μM, auranofin 2 h, then 200 μM sepiapterin 3 h, listed as Auranofin, read-out: SPR IC50, HaCaT cells) it was 10.7 µM; at SPR [4] (HaCaT (human keratinocytes), with MTX 1 μM, auranofin 2 h, then 200 μM sepiapterin 3 h, read-out: SPR IC50, HaCaT cells) it was 10.7 ± 0.9 µM. In addition, the IC50 at SPR [4] (Jurkat (human leukemia), with methotrexate, read-out: SPR IC50, Jurkat cells) was found to be 7.2 ± 0.17 µM; on SPR [4] (SKNMC (human neuroblastoma), with methotrexate, read-out: SPR IC50, SKNMC cells), 17.7 ± 1.54 µM; on SPR [5] it was 21.3 ± 1.58 µM; at DHFR [6], 0.87 ± 0.09 µM; at DHFR [7] it was 17.2 ± 0.63 µM. In data set [3], the “production of monoamines (serotonin, dopamine) and their metabolites (5HIAA, DOPAC, HVA)” value is on record as “concentration-dependent inhibition; also recorded: significantly reduced”. For the same molecule, the “time of pretreatment to maximum inhibition of cellular SPR” value at SPR [4] (HaCaT cells with methotrexate, 20 μM auranofin) turned out to be 2 h.
